Tests used:
Porcine PDH E1 = target: T1, Porcine PDH E1 (Sus scrofa, UniProt P29804); assay: Porcine PDH E1 inhibitory activity assay (DCPIP reduction); format: biochemical; conditions: for % Inhibition (5:1): [Compound] = 250 μM, [TPP] = 50 μM; for inhibition at 250 µM: [Compound] = [TPP] = 250 μM, read-out: % Inhibition (1:1); for vs TPP: affinity of the compound relative to that of TPP (= [TPP]/IC50) / IC50: [TPP] = 60 µM; for IC50: read-out: IC50 (μM ± SEM); for Ki: calculated from KM(TPP) 0.05 µM using [TPP]/IC50 = KM(TPP)/KI
T1 sequence (P29804 31-390): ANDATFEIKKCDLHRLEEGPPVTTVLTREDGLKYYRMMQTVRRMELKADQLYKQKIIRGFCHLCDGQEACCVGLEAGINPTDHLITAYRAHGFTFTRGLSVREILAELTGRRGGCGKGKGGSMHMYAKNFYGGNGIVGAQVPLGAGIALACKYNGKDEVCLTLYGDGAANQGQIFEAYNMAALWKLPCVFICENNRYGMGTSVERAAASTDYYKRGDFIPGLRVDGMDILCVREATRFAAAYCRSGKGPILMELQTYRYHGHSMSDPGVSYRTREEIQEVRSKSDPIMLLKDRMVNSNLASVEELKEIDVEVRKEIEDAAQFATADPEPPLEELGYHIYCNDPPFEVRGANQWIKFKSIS
Experimental: Porcine PDH E1 was purchased from Sigma. Porcine PDH E1 activity was determined by monitoring 2,6-dichlorophenolindophenol (DCPIP) reduction at 600 nm using a microplate reader (CLARIOstar) and conducted as described[5] with some modifications. […] The reaction buffer (50 mM KH2PO4 and 1 mM MgCl2, pH 7) contained thiamine pyrophosphate (TPP) at specified concentrations, 0.25 mM DCPIP, and 2 mg/mL porcine PDH E1. The reaction mixture was preincubated at 37 °C with the inhibitor for 30 min, and then the reaction was initiated by adding pyruvate to a final concentration of 50 mM. To determine the half-maximal inhibitory concentration (IC50), the TPP concentration was set at 60 μM with varying inhibitor concentrations. Specific activity was calculated using the molar extinction coefficient of DCPIP, 21 mM^–1 cm^–1.[28] The IC50 values were calculated from nonlinear regression curve fitting using GraphPad Prism.
Porcine PDH E1 inhibitory activity assay. Porcine PDH E1 was purchased from Sigma. Porcine PDH E1 activity was determined by monitoring 2,6-dichlorophenolindophenol (DCPIP) reduction at 600 nm using a microplate reader (CLARIOstar) and conducted as described3 with some modifications. The […]
buffer (50 mM KH2PO4 and 1 mM MgCl2, pH 7) contained thiamine pyrophosphate (TPP) at specified concentrations, 0.25 mM 2,6-dichlorophenolindophenol (DCPIP), and 2 mg/mL porcine PDH E1. The reaction mixture was preincubated at 37 °C with the inhibitor for 30 min, then reaction was initiated by adding pyruvate to a final concentration of 50 mM. To determine the half-maximal inhibitory concentration (IC50), TPP concentration was set at 60 µM with varying inhibitor concentrations. […]
values were calculated from non-linear regression curve fitting using GraphPad Prism. […]

TPP-dependent enzymes = assay: Inhibition / relative affinity across the TPP-dependent enzymes (PDH E1, PDC, PO, OGDH E1); format: biochemical; conditions: comparison of relative affinities
Source text: The different biochemical reactions catalyzed, preferred substrates (Table S1), and primary sequences reflect the structurally and functionally diverse members of the family. […] However, as the inhibitors are TPP-competitive, what really matters is the affinity of each inhibitor relative to the affinity of TPP for that particular enzyme.

porcine liver esterase = assay: Esterase treatment with UPLC-HRMS analysis; format: in vitro ADME
Experimental: Esters 13b and 15b were subjected to esterase treatment (porcine liver esterase) at 37 °C and pH 7.4 for 2 h, and then the reaction mixtures were analyzed using UPLC-HRMS (Figure 4).[24] The molecular mass of the new products formed was determined by MS and confirmed that they were the expected carboxylic acids. […] The second hydrolysis is presumably slower because the substrate 17 is anionic, whereas for the first hydrolysis, the substrate 13b is neutral.[19],[25],[26] When 13b enters a cell through passive diffusion, the intracellular esterases will begin to hydrolyze the ester groups to give first 17 and then 14b. Since both 17 and 14b are negatively charged under physiological conditions, they will be unable to diffuse back out of the cell and so should accumulate there.[27] Diester 13b is more hydrophobic than triazole hydroxamate 4 (c Log D: 0.8 vs −0.5) and so should diffuse into cells more readily. […] Thus, we anticipate that 13b will be as useful as 4 in probing the role of vitamin B1 in cells.
Figure 4 UPLC-HRMS analysis of the esterase treatment. […] Compound (retention time/min): diester 13b (1.30), dicarboxylate 14b (0.51), monoester 15b (0.99), monocarboxylate 16b (0.51), and intermediate 17 (0.67).

SMILES | % Inhibition (5:1) (Porcine PDH E1) [%] | inhibition at 250 µM (Porcine PDH E1) [%] | vs TPP: affinity of the compound relative to that of TPP (= [TPP]/IC50) (Porcine PDH E1) | IC50 (Porcine PDH E1) [µM] | Ki (Porcine PDH E1) [µM] | affinities, fold lower than those of 14b (TPP-dependent enzymes) | outcome of esterase treatment (porcine liver esterase; 37 °C, pH 7.4, 2 h) | outcome of esterase treatment (porcine liver esterase; after 24 h)
COC(=O)C(CCCc1cn(Cc2cnc(C)nc2N)nn1)C(=O)OC [13b] | 81 ± 4 | 48 ± 3 | 0.88 | 68 ± 9 | 0.057 | approximately 3 fold | the major product was monoester monocarboxylate 17 | the only product seen was dicarboxylate 14b
COC(=O)CCCCc1cn(Cc2cnc(C)nc2N)nn1 [15b] | 71 ± 4 | 31 ± 3 | 0.48 | 126 ± 28 | 0.11 | – | completely hydrolyzed into monocarboxylate 16b | –
COC(=O)CCCc1cn(Cc2cnc(C)nc2N)nn1 [15a] | 65 ± 4 | 25 ± 4 | 0.36 | 167 ± 35 | 0.14 | – | – | –
Cc1ncc(Cn2cc(CCCC(=O)[O-])nn2)c(N)n1.[K+] [16a] | 75 ± 4 | 34 ± 3 | 0.54 | 111 ± 18 | 0.093 | – | – | –
COC(=O)C(CCc1cn(Cc2cnc(C)nc2N)nn1)C(=O)OC [13a] | 71 ± 3 | 36 ± 2 | 0.53 | 114 ± 15 | 0.095 | – | – | –
Cc1ncc(Cn2cc(CCCCC(=O)[O-])nn2)c(N)n1.[K+] [16b] | 77 ± 3 | 40 ± 3 | 0.65 | 92 ± 13 | 0.077 | approximately 3 fold | – | –
Cc1ncc(Cn2cc(CCC(C(=O)[O-])C(=O)[O-])nn2)c(N)n1.[K+].[K+] [14a] | > 90 | 62 ± 3 | 1.62 | 37 ± 6 | 0.031 | – | – | –
Cc1ncc(Cn2cc(CCCC(C(=O)[O-])C(=O)[O-])nn2)c(N)n1.[K+].[K+] [14b] | > 90 | 72 ± 3 | 2.4 | 25 ± 6 | 0.021 | – | – | –

From PMC11483378, “Triazole-Based Thiamine Analogues as Inhibitors of Thiamine Pyrophosphate-Dependent Enzymes: 1,3-Dicarboxylate for Metal Binding” (ACS Omega, 2024)
